Results taken from the NIST ThermoML archive (doi:10.1016/j.jct.2011.06.012).

Assay: xn = mol fraction of the nth substance listed
Conditions: Liquid, Bellows volumetry

CC(C)C [2-methylpropane] + O=C=O
mass density [kg/m3]
Conditions | 360 K | 380 K | 400 K | 420 K | 440 K
10000 kPa, x2 = 0.2482 | – | – | 408.28 | – | –
20000 kPa, x2 = 0.2482 | – | – | 486.62 | – | 428.1
20000 kPa, x2 = 0.4718 | – | 521.68 | 481.65 | 441.54 | 402.95
30000 kPa, x2 = 0.2482 | – | – | 523.46 | – | 479.05
30000 kPa, x2 = 0.4718 | – | 568.93 | 539.19 | 509.95 | 481.23
30000 kPa, x2 = 0.7506 | – | – | 557.06 | – | 473.55
40000 kPa, x2 = 0.2482 | – | – | 548.72 | – | 511.07
40000 kPa, x2 = 0.4718 | – | 600.05 | 574.86 | 550.57 | 526.82
40000 kPa, x2 = 0.7506 | – | – | 618.58 | – | 548.5
50000 kPa, x2 = 0.2482 | – | – | 568.35 | – | 534.44
50000 kPa, x2 = 0.4718 | – | 623.65 | 601.24 | 579.87 | 559.05
50000 kPa, x2 = 0.7506 | 727.44 | – | 660.8 | – | 599.76
60000 kPa, x2 = 0.2482 | 617.73 | – | 584.33 | – | 553.6
60000 kPa, x2 = 0.4718 | 664.02 | 642.83 | 622.39 | 602.9 | 584.01
60000 kPa, x2 = 0.7506 | 753.47 | – | 693.37 | – | 637.87
70000 kPa, x2 = 0.2482 | 629.43 | – | 598.36 | – | 569.47
70000 kPa, x2 = 0.4718 | 678.79 | 658.77 | 640.1 | 622.11 | 604.56
70000 kPa, x2 = 0.7506 | 775.21 | – | 719.26 | – | 668.37
80000 kPa, x2 = 0.2482 | 639.78 | – | 610.26 | – | 583.24
80000 kPa, x2 = 0.4718 | 691.87 | 672.89 | 655.36 | 638.65 | 622.24
80000 kPa, x2 = 0.7506 | 793.79 | – | 741.54 | – | 694.04
90000 kPa, x2 = 0.2482 | 649.26 | – | 620.93 | – | 595.28
90000 kPa, x2 = 0.4718 | 703.51 | 685.61 | 668.68 | 652.88 | 637.3
90000 kPa, x2 = 0.7506 | 810.34 | – | 760.76 | – | 716.21
100000 kPa, x2 = 0.2482 | 658 | – | 630.87 | – | 606.31
100000 kPa, x2 = 0.4718 | 714.09 | 697.01 | 680.77 | 665.6 | 650.87
100000 kPa, x2 = 0.7506 | 825.34 | – | 778 | – | 735.56
120000 kPa, x2 = 0.2482 | 673.4 | – | 647.91 | – | 625.43
120000 kPa, x2 = 0.4718 | 733.04 | 716.82 | 701.98 | 688.04 | 674.34
120000 kPa, x2 = 0.7506 | 851.1 | – | 807.55 | – | 768.56
140000 kPa, x2 = 0.2482 | 686.88 | – | 662.89 | – | 641.8
140000 kPa, x2 = 0.4718 | 749.43 | 734.35 | 720.03 | 707.29 | 694.6
140000 kPa, x2 = 0.7506 | 872.92 | – | 832.23 | – | 796.08
160000 kPa, x2 = 0.2482 | 699.29 | – | 675.97 | – | 656.01
160000 kPa, x2 = 0.4718 | 763.95 | 749.48 | 735.72 | 723.63 | 711.68
160000 kPa, x2 = 0.7506 | 892.29 | – | 854.07 | – | 819.85
180000 kPa, x2 = 0.2482 | 710.13 | – | 687.97 | – | 668.66
180000 kPa, x2 = 0.4718 | 777.13 | 763.2 | 749.97 | 738.5 | 726.86
180000 kPa, x2 = 0.7506 | 909.66 | – | 873.25 | – | 840.83
200000 kPa, x2 = 0.2482 | 720.21 | – | 698.66 | – | 680.35
200000 kPa, x2 = 0.4718 | 789.12 | 775.73 | 763.13 | 752.04 | 741.37
200000 kPa, x2 = 0.7506 | 925.27 | – | 890.48 | – | 859.57
